23 molecules from patent US20080153917A1, “Sigma Receptor Ligands” (UCB PHARMA, S.A., priority 2004, published 2008) can be followed below.

Where a name gives a salt, the structure may show the parent alone.

The first data set has as its system MK801-induced short term/working memory deficits. As to the kind of experiment: spontaneous alternation task (Y-shaped maze), short term/working memory. It counts as in vivo. Conditions: male mice, 8 minutes in maze; normal mice 65-70 %. The source says:
The effect of claimed compounds has been evaluated in an animal model of short term/working memory, namely the spontaneous alternation task. The test system consisted of a symmetrical Y-shaped maze. […] Claimed compounds were able to prevent this deficit after systemic administration.
On to `C[C@]12N[C@H](Cc3ccccc31)c1ccccc12` [MK801], for which the “% spontaneous alternation” value was “decreased percentage of spontaneous alternation”.

Test system in the next data set: not given
Experiment: not given
Conditions: not given
`CC1CCCCN1CCCNC(=O)C(c1ccccc1)C1CCCC1` (centres unmarked) (as salt: HCl) [Compound 14, 2-cyclopentyl-N-[3-(2-methyl-1-piperidinyl)propyl]-2-phenylacetamide] registered a melting point of 69 °C.
The molecule `CCN(CC)CCNC(=O)C(c1ccccc1)C1CCCC1` (centres unmarked) (as salt: HCl) [Compound 15, 2-cyclopentyl-N-[2-(diethylamino)ethyl]-2-phenylacetamide] returned a melting point of 129 °C.
On to `CCNCCNC(=O)C(c1ccccc1)C1CCCC1` (centres unmarked) (as salt: HCl) [Compound 18, 2-cyclopentyl-N-[2-(ethylamino)ethyl]-2-phenylacetamide], for which the melting point amounted to 131 °C.
Still for that read-out and setting: in the case of `CCN(CC)CCNC(=O)C(c1ccc(F)cc1)C1CCCC1` (centres unmarked) (as salt: HCl) [Compound 21, 2-cyclopentyl-N-[2-(diethylamino)ethyl]-2-(4-fluorophenyl)acetamide] it was 45 °C; in that of `NCCNC(=O)C(c1ccccc1)C1CCCC1` (centres unmarked) (as salt: HCl) [Compound 22, N-(2-aminoethyl)-2-cyclopentyl-2-phenylacetamide], 290 °C.
On the same count and under the same terms, the value for `O=C(C(c1ccccc1)C1CCCC1)N1CCC(N2CCCCC2)CC1` (centres unmarked) (as salt: HCl) [Compound 24, 1′-[cyclopentyl(phenyl)acetyl]-1,4′-bipiperidine] was 112 °C; that for `O=C(C(c1ccc(Cl)c(Cl)c1)C1CCCC1)N1CCC(N2CCCCC2)CC1` (centres unmarked) (as salt: HCl) [Compound 25, 1′-[cyclopentyl(3,4-dichlorophenyl)acetyl]-1,4′-bipiperidine] was 230 °C.
Same read-out and setting: in the case of `O=C(C(c1ccc(Cl)cc1)C1CCCC1)N1CCC(N2CCCCC2)CC1` (centres unmarked) (as salt: HCl) [Compound 27, 1′-[(4-chlorophenyl)(cyclopentyl)acetyl]-1,4′-bipiperidine] it was 105 °C; in that of `O=C(NCCCN1CCOCC1)C(c1ccccc1)C1CCCC1` (centres unmarked) (as salt: HCl) [Compound 32, 2-cyclopentyl-N-[3-(4-morpholinyl)propyl]-2-phenylacetamide], 145 °C; in that of `O=C(NCCCN1CCN(Cc2c(F)cccc2Cl)CC1)C(c1ccccc1)C1CCCC1` (centres unmarked) (as salt: HCl) [Compound 34, N-{3-[4-(2-chloro-6-fluorobenzyl)-1-piperazinyl]propyl}-2-cyclopentyl-2-phenylacetamide], 148 °C.
Turning to `CCN(CC)C1CCN(C(=O)C(c2ccccc2)C2CCCC2)CC1` (centres unmarked) (as salt: HCl) [Compound 37, N-{1-[cyclopentyl(phenyl)acetyl]-4-piperidinyl}-N,N-diethylamine], the melting point is 79 °C.
On the same count and under the same terms, the value for `CCOC(=O)C1CCN(C2CCN(C(=O)C(c3ccccc3)C3CCCC3)CC2)CC1` (centres unmarked) (as salt: HCl) [Compound 40, ethyl 1′-[cyclopentyl(phenyl)acetyl]-1,4′-bipiperidine-4-carboxylate] was 88 °C; that for `O=C(C(c1ccccc1)C1CCCC1)N1CCC(N2CCC(O)CC2)CC1` (centres unmarked) (as salt: HCl) [Compound 41, 1′-[cyclopentyl(phenyl)acetyl]-1,4′-bipiperidin-4-ol] was 90 °C.
The molecule `O=C(C(c1ccccc1)C1CCCC1)N1CCC(N2CCOCC2)CC1` (centres unmarked) (as salt: Na) [Compound 36, 4-{1-[cyclopentyl(phenyl)acetyl]-4-piperidinyl}morpholine] returned a melting point of 111.8 °C.
Same read-out and setting: in the case of `CC(C)N1CCN(C2CCN(C(=O)C(c3ccccc3)C3CCCC3)CC2)CC1` (centres unmarked) (as salt: Na) [Compound 38, 1-{1-[cyclopentyl(phenyl)acetyl]-4-piperidinyl}-4-isopropylpiperazine] it was 109.6 °C; in that of `CN(C)[C@H]1CCN(C(=O)C(c2ccccc2)C2CCCC2)C1` (stereo partly drawn) (as salt: Na) [Compound 42, (3S)-1-[cyclopentyl(phenyl)acetyl]-N,N-dimethyl-3-pyrrolidinamine], 68 °C.
Still for that read-out and setting: in the case of `O=C(NCCCN1CCN(Cc2c(F)cccc2Cl)CC1)[C@@H]1C[C@H]1c1ccccc1` (relative stereo) (as salt: HCl) [Compound 5, Trans-N-{3-[4-(2-chloro-6-fluorobenzyl)-1-piperazinyl]propyl}-2-phenylcyclopropanecarboxamide] it was 145 °C; in that of `O=C(NCCN1CCN(Cc2ccccc2)CC1)[C@@H]1C[C@H]1c1ccccc1` (relative stereo) (as salt: HCl) [Compound 7, Trans-N-[2-(4-benzyl-1-piperazinyl)ethyl]-2-phenylcyclopropanecarboxamide], 195 °C.
On the same count and under the same terms, in the case of `O=C(NCCN1CCN(C(=O)c2c(F)cccc2Cl)CC1)[C@@H]1C[C@H]1c1ccccc1` (relative stereo) (as salt: HCl) [Compound 9, Trans-N-{2-[4-(2-chloro-6-fluorobenzoyl)-1-piperazinyl]ethyl}-2-phenylcyclopropanecarboxamide] it was 122 °C; in that of `O=C(NCCN1CCN(Cc2ccc(Cl)c(Cl)c2)CC1)[C@@H]1C[C@H]1c1ccccc1` (relative stereo) (as salt: HCl) [Compound 10, Trans-N-{2-[4-(3,4-dichlorobenzyl)-1-piperazinyl]ethyl}-2-phenylcyclopropanecarboxamide], 145 °C; in that of `CCN(CC)CCNC(=O)C(c1ccccc1)C1CCCC1` (single isomer, unassigned; (+)) (as salt: HCl) [Compound 50, (+)2-cyclopentyl-N-[2-(diethylamino)ethyl]-2-phenylacetamide], 144 °C.
For `CCN(CC)CCNC(=O)C(c1ccccc1)C1CCCC1` (single isomer, unassigned; (-)) (as salt: HCl) [Compound 51, (−)2-cyclopentyl-N-[2-(diethylamino)ethyl]-2-phenylacetamide], the melting point was determined as 146 °C.
